From article PMC8776063, “Aurora Kinase A Is Involved in Controlling the Localization of Aquaporin-2 in Renal Principal Cells” (International Journal of Molecular Sciences, 2022)
Read-outs that look alike come from different tables or passages of the source.

How the values were obtained:
[1] = biological target: T1, CHEK2 (Homo sapiens, UniProt O96017); experiment: Thermal shift assay; type: binding; details: read-out: ΔTm CHEK2
T1 construct: purchased in-house thermal shift (DSF) kinase panel (SGC Frankfurt); Promega NanoBRET for AURKA/B/C

[2] = biological target: T2, CLK1 (Homo sapiens, UniProt P49759); experiment: Thermal shift assay; type: binding; details: read-out: ΔTm CLK1
T2 construct: purchased in-house thermal shift (DSF) kinase panel (SGC Frankfurt); Promega NanoBRET for AURKA/B/C

[3] = biological target: T3, CSNK2A1 (Homo sapiens, UniProt P68400); experiment: Thermal shift assay; type: binding; details: read-out: ΔTm CSNK2A1
T3 construct: purchased in-house thermal shift (DSF) kinase panel (SGC Frankfurt); Promega NanoBRET for AURKA/B/C

[4] = biological target: T4, DAPK3 (Homo sapiens, UniProt O43293); experiment: Thermal shift assay; type: binding; details: read-out: ΔTm DAPK3
T4 construct: purchased in-house thermal shift (DSF) kinase panel (SGC Frankfurt); Promega NanoBRET for AURKA/B/C

[5] = biological target: T5, GSG2 (Homo sapiens, UniProt Q8TF76); experiment: Thermal shift assay; type: binding; details: read-out: ΔTm GSG2
T5 construct: purchased in-house thermal shift (DSF) kinase panel (SGC Frankfurt); Promega NanoBRET for AURKA/B/C
T5 sequence (Q8TF76 465-798): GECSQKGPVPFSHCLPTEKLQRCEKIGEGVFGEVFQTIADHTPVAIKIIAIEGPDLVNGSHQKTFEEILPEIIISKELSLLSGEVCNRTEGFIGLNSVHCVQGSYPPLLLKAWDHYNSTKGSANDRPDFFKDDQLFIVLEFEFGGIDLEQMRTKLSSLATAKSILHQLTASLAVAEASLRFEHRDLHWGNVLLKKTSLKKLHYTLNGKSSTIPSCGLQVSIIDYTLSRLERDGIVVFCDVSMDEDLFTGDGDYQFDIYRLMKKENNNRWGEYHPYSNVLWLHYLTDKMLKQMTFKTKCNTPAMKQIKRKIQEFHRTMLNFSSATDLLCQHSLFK

[6] = biological target: T6, MAP2K6 (Homo sapiens, UniProt P52564); experiment: Thermal shift assay; type: binding; details: read-out: ΔTm MAP2K6
T6 construct: purchased in-house thermal shift (DSF) kinase panel (SGC Frankfurt); Promega NanoBRET for AURKA/B/C
T6 sequence (P52564 47-334): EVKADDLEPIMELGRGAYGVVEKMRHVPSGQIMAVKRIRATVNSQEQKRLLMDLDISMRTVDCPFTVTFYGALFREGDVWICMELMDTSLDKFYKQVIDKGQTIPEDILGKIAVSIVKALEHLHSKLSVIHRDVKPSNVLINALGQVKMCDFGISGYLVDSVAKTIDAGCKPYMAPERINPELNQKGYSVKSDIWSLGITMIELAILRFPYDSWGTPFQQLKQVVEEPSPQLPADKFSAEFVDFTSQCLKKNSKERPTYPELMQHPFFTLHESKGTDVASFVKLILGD

[7] = biological target: T7, MERTK (Homo sapiens, UniProt Q12866); experiment: Thermal shift assay; type: binding; details: read-out: ΔTm MERTK
T7 construct: purchased in-house thermal shift (DSF) kinase panel (SGC Frankfurt); Promega NanoBRET for AURKA/B/C
T7 sequence (Q12866 570-864): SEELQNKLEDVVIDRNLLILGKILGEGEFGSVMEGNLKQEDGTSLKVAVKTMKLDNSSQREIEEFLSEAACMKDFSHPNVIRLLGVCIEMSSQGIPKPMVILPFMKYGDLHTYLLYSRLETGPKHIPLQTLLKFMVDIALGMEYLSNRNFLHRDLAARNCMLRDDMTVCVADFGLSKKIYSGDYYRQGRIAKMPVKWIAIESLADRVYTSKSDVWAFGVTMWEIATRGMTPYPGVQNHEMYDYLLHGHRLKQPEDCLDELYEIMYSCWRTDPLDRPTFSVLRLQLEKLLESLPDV

[8] = biological target: T8, PHKG2 (Homo sapiens, UniProt P15735); experiment: Thermal shift assay; type: binding; details: read-out: ΔTm PHKG2
T8 construct: purchased in-house thermal shift (DSF) kinase panel (SGC Frankfurt); Promega NanoBRET for AURKA/B/C
T8 sequence (P15735 6-293): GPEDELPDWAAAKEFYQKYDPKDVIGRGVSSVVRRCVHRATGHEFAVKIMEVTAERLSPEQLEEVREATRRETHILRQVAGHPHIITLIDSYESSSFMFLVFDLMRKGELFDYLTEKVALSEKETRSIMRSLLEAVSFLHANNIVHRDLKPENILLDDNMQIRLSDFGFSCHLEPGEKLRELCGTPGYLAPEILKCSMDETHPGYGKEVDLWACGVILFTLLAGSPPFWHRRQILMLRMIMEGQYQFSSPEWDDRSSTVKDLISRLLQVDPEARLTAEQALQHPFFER

[9] = biological target: T9, AURKA (Homo sapiens, UniProt O14965); experiment: NanoBRET assay in HEK293T cells; type: cell-based
T9 construct: full-length wild-type AURKA, AURKB, and AURKC were obtained as plasmids cloned in frame with a C-terminal NanoLuc-fusion; host or cells: HEK293T
T9 sequence (O14965 1-403): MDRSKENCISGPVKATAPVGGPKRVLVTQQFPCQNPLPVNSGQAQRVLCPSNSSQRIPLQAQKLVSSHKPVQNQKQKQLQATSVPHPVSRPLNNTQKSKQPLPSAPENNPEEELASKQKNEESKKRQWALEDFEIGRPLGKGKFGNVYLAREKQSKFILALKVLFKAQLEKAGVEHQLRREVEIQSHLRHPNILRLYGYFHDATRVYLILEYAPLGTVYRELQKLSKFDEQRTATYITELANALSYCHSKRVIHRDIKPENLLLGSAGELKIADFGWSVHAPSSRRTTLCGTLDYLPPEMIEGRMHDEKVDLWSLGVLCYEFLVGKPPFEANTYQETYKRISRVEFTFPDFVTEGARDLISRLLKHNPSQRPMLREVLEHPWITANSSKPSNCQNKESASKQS

[10] = tested on: MCD4 cells; experiment: MTS assay (cell viability); type: cell-based, mouse; details: 30 µM, 10 µM or 1 µM, 1 h; compared to untreated cells
[11] = tested on: MCD4 cells; experiment: AQP2 redistribution, immunofluorescence microscopy; details: forskolin 30 µM, 30 min; for inhibition of the forskolin-induced redistribution of AQP2 to the plasma membrane: compound 30 µM, 1 h (Aurora-A inhibitor I 1-30 µM)
[12] = biological target: T10, AURKB (Homo sapiens, UniProt Q96GD4); experiment: Thermal shift assay; type: binding; parameters: full-length wild-type AURKA, AURKB, and AURKC were obtained as plasmids cloned in frame with a C-terminal NanoLuc-fusion; details: read-out: ΔTm AURKB
[13] = biological target: T10, AURKB; experiment: NanoBRET assay in HEK293T cells; type: cell-based; parameters: full-length wild-type AURKA, AURKB, and AURKC were obtained as plasmids cloned in frame with a C-terminal NanoLuc-fusion; host or cells: HEK293T
[14] = NanoBRET, HEK293T cells overexpressing the kinase, Table 2, read-out: AURKB IC50
[15] = NanoBRET, HEK293T cells overexpressing the kinase, Table 2, read-out: AURKA IC50
[16] = NanoBRET, n = 2, mean, Figure 6B, read-out: affinity to intracellular AURKB

T10 sequence (Q96GD4 whole entry, the tested form may be a part): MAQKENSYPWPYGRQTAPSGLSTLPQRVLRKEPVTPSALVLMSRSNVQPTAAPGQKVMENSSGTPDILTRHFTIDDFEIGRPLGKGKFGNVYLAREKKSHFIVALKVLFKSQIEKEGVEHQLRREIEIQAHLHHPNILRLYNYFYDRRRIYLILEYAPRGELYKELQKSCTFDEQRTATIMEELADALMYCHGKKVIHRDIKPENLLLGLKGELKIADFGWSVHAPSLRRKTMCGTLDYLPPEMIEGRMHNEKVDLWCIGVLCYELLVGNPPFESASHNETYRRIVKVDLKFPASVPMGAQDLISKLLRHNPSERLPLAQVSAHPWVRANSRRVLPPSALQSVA
T2 sequence (P49759 148-484): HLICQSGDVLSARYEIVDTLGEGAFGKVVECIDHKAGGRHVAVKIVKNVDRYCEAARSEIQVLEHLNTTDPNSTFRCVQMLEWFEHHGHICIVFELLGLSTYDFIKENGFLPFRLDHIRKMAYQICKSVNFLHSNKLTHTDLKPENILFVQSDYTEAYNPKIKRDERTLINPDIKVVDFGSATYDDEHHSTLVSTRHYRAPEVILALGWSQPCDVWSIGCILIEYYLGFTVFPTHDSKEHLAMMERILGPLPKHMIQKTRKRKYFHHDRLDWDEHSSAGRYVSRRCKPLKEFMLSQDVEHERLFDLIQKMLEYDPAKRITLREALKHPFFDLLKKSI
T4 sequence (O43293 9-289): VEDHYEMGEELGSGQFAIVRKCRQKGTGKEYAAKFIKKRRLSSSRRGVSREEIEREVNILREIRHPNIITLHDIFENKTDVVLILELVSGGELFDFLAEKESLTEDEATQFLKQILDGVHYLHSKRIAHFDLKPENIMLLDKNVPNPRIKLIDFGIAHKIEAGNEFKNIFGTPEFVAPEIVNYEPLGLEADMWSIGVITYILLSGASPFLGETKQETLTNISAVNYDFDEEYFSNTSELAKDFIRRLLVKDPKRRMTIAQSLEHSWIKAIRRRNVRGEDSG
T3 sequence (P68400 1-337): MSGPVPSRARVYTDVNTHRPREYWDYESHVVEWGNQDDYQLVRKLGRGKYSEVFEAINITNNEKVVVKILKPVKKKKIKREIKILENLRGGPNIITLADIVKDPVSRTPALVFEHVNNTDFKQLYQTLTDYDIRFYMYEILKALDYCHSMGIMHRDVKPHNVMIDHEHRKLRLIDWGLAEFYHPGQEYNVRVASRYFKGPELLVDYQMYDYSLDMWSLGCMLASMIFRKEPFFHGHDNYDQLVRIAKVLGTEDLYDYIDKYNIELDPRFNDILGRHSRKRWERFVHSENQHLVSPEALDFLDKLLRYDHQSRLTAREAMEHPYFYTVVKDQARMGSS
T1 sequence (O96017 210-531): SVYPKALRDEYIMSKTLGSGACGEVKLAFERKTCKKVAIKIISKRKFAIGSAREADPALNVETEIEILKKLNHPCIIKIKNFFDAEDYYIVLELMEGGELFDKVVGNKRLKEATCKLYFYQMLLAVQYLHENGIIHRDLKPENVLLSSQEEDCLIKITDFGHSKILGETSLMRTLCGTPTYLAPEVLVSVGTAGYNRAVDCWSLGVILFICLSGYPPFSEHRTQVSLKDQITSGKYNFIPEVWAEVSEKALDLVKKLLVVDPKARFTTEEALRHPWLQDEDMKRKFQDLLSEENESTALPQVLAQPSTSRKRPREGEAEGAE

Compound | viability of MCD4 cells [10] | inhibition of the forskolin-induced redistribution of AQP2 to the plasma membrane [11] | ΔTm at 10 µM ([1]; compound 10 µM, n = 3) [°C] | ΔTm at 10 µM ([2]; compound 10 µM, n = 3) [°C] | ΔTm at 10 µM ([3]; compound 10 µM, n = 3) [°C] | ΔTm at 10 µM ([4]; compound 10 µM, n = 3) [°C] | ΔTm at 10 µM ([5]; compound 10 µM, n = 3) [°C] | ΔTm at 10 µM ([6]; compound 10 µM, n = 3) [°C] | ΔTm at 10 µM ([7]; compound 10 µM, n = 3) [°C] | ΔTm at 10 µM ([8]; compound 10 µM, n = 3) [°C] | ΔTm at 10 µM ([12]; compound 10 µM, n = 3) [°C] | IC50 [13, 14] [µM] | IC50 [9, 15] [µM] | IC50 [13, 16] [µM] | other results
CCN1CCN(C(=O)Cc2ccc(Nc3ncc(F)c(Nc4ccc(C(=O)Nc5ccccc5Cl)cc4)n3)cc2)CC1 [Aurora-A inhibitor I, reference compound] | did not elicit any significant effects | inhibits |  |  |  |  |  |  |  |  |  |  |  |  | ΔTm at 10 µM [1]: 2.2 °C; ΔTm at 10 µM [2]: 1.5 °C; ΔTm at 10 µM [3]: 1.1 °C; ΔTm at 10 µM [4]: 2.8 °C; ΔTm at 10 µM [5]: 0 °C; ΔTm at 10 µM [6]: 0.6 °C; ΔTm at 10 µM [7]: 1.7 °C; ΔTm at 10 µM [8]: 0.7 °C; IC50 [9]: 0.183 µM; effective concentration for inhibition of AQP2 redistribution ([11]; 1, 10 or 30 µM, 1 h): greater than 1 µM; ΔTm at 10 µM [12]: -0.5 °C; IC50 [13]: > 50 µM
O=C(Cc1ccc(Nc2ncc(F)c(Nc3ccc(C(=O)Nc4ccccc4Cl)cc3)n2)cc1)NCCN1CCOCC1 [ERJ2-04] | reduced by 10 or 30 µM | not different from that in cells treated with the compound solvent, DMSO | 1.2 | 0.4 | 1.3 | 2.4 | 0 | 0.4 | 0.9 | 0.3 | -0.8 | > 50 |  |  | IC50 ([9]; NanoBRET, n = 2, mean, Figure 6B, read-out: affinity to intracellular AURKA): 0.558 µM
NC(=O)Cc1ccc(Nc2ncc(F)c(Nc3ccc(C(=O)Nc4ccccc4Cl)cc3)n2)cc1 [ERJ2-06] | did not elicit any significant effects |  | 3.5 | 1.7 | 1.6 | 4.8 | 0.2 | 0.8 | 1.3 | 0.9 | 0.5 |  | 0.165 | 13.6 | 
CCN1CCN(C(=O)Cc2ccc(Nc3ncc(F)c(Nc4ccc(C(=O)Nc5ccccc5)cc4)n3)cc2)CC1 [ERJ2-11] | reduced by 10 or 30 µM |  | 3.6 | 1.5 | 1.1 | 3.5 | 0 | 0.7 | 1.7 | 0.8 | -0.2 |  | 0.767 | 43 | 
CCN1CCN(C(=O)Cc2ccc(Nc3ncc(F)c(Nc4ccc(C(=O)O)cc4)n3)cc2)CC1 [ERJ2-12] | does not affect | not different from that in cells treated with the compound solvent, DMSO | 0.3 | 0.5 | 1.3 | 0.7 | 0 | 0.8 | 0.3 | 0.2 | -2.5 | > 50 | > 50 |  | 
